Assay [1] has as its target T1, SMARCA2-HiBiT HeLa cells (protein which is expressed from the SMARCA2 gene) (Homo sapiens, UniProt P51531).
T1 construct: protein which is expressed from the SMARCA2 and SMARCA4 genes; host or cells: HeLa (SMARCA2-HiBiT engineered line)
In words: SMARCA2 degradation assay (HiBiT-fusion HeLa cell line, 24 h, luminescence). The format is cell-based. Put shortly:
(§1)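 In this 24-hour cellular degradation readout, HiBiT-tagged HeLa lines received compound at up to typically 10 μM down to 300 pM in 10 points. After lysis with LgBiT and substrate, luminescence signals were used to build dose-response curves for DC50.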
Background: With HiBiT, luminescence reflects the tagged protein that the partner subunit can reach.

Assay [2] has as its target T2, SMARCA4-HiBiT HeLa cells (protein which is expressed from the SMARCA4 gene) (Homo sapiens, UniProt P51532).
T2 construct: protein which is expressed from the SMARCA2 and SMARCA4 genes; host or cells: HeLa (SMARCA4-HiBiT engineered line)
Kind of assay: SMARCA4 degradation assay (HiBiT-fusion HeLa cell line, 24 h, luminescence). The format is cell-based. The gist of the method: as §1

Some results are limits rather than exact numbers.

T1 sequence (P51531 whole entry): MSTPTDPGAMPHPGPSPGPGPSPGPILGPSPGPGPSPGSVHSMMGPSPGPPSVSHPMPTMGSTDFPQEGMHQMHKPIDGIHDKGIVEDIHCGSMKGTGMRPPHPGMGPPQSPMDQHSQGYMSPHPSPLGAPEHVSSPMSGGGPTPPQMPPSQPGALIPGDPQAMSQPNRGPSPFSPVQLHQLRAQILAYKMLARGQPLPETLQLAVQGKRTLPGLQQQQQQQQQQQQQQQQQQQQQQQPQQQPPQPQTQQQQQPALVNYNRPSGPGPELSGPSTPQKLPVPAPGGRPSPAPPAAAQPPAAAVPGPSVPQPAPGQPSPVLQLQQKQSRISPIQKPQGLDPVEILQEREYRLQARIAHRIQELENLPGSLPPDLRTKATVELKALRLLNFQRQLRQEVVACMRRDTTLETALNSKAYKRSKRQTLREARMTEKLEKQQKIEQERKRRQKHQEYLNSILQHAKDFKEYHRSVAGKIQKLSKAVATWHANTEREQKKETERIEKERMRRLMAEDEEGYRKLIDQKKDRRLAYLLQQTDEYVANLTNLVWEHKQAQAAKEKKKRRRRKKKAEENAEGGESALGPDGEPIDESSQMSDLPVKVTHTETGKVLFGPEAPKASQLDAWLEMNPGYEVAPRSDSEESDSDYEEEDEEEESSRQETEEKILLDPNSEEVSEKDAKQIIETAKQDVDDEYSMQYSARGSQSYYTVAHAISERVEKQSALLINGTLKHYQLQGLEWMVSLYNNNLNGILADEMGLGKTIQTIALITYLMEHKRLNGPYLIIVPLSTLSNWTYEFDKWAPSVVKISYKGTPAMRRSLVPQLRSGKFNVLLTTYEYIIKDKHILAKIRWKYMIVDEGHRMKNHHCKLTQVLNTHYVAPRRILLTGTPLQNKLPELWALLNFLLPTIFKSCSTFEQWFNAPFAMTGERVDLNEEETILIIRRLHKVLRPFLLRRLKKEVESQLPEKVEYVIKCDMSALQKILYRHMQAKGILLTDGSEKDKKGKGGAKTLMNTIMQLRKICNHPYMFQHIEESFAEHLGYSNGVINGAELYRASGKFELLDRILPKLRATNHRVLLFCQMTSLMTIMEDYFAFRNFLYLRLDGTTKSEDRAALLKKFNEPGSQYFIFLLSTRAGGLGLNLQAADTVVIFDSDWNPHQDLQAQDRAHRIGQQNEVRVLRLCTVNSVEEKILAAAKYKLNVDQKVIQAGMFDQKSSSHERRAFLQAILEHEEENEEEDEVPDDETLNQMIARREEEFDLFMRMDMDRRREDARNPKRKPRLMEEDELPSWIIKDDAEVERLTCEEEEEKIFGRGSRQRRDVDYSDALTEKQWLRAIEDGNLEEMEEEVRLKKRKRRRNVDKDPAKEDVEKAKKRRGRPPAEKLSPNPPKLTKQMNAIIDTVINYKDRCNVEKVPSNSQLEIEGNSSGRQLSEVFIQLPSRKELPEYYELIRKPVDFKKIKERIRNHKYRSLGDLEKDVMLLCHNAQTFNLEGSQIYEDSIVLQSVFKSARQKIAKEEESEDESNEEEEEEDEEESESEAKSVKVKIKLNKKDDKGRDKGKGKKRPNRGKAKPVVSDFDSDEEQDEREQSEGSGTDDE
T2 sequence (P51532 whole entry): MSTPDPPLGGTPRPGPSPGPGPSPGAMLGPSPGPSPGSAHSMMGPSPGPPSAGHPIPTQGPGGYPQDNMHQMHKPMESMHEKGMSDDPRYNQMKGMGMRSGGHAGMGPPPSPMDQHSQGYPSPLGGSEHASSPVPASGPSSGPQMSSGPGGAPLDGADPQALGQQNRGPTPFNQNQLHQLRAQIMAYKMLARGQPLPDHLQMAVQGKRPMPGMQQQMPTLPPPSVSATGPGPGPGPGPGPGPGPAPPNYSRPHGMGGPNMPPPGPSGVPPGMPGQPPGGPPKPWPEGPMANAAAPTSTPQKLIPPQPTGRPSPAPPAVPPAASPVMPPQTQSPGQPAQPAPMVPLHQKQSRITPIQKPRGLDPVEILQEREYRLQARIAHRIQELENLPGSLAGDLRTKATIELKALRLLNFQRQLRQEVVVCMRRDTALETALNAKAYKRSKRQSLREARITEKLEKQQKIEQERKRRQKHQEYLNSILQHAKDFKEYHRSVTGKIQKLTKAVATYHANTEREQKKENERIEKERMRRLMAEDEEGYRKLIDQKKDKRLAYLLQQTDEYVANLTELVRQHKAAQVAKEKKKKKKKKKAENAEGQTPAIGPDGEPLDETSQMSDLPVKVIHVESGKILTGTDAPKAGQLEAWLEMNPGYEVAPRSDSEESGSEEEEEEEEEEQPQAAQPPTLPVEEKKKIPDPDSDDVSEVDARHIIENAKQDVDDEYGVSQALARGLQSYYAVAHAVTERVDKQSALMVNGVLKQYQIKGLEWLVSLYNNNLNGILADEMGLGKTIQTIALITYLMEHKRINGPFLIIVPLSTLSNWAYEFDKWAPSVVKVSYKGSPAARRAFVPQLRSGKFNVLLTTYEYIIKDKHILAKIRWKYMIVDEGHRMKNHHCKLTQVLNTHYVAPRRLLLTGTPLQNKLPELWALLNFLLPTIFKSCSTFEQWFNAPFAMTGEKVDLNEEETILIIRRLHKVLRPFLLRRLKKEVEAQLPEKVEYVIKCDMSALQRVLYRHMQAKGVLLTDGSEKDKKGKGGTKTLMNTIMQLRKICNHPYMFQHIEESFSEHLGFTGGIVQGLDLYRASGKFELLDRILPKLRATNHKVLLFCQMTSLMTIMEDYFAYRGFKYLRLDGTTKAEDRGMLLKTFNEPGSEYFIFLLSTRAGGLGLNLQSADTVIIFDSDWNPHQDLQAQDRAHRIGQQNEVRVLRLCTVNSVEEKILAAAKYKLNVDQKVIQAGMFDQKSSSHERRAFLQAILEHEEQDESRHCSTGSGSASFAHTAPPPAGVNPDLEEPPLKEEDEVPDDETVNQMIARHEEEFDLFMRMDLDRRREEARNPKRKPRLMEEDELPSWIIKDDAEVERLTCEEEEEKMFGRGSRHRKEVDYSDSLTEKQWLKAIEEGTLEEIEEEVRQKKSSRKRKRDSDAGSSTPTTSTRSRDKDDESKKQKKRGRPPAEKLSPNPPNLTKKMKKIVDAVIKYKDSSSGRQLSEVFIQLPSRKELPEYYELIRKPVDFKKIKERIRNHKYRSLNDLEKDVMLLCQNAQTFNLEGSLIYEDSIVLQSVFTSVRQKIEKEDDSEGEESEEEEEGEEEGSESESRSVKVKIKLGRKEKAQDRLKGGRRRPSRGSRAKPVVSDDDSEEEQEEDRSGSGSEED

What is called DC50 is the concentration giving 50% degradation. A higher DC50 goes with degradation only at high concentration. On to `C[C@@H]1CCN(c2cc(-c3ccccc3O)nnc2N)CCN1c1ccc(C#N)c(C#CCN2CC(F)(F)[C@H]2C)n1` [Compound P-413, 6-{(R)-4-[3-amino-6-(o-hydroxyphenyl)-4-pyridazinyl]-7-methyl-1,4-diazepan-1-y1}-2-{3-[(R)-3,3-difluoro-2-methyl-1-azetidinyl]-1-propynyl} nicotinonitrile], for which the results for the DC50 in assay [1] and in assay [2] were 50 to 500 nM and > 5000 nM, respectively. The “SMARCA2 % Degradation @ 1 μM” value in assay [1] (1 μM) was “++ (++=30-70%)”.
For orientation: inhibition means the percentage by which the read-out fell short of the control. Low readings indicate little suppression, high ones strong suppression. With `C[C@@H]1CCN(c2cc(-c3ccccc3O)nnc2N)CCN1c1ccnc(C#CCN2CC3CCC2CO3)n1` (stereo partly drawn) [Compound P-178, o-{5-[(R)-5-methyl-4-(2-{3-(2-oxa-5-azabicyclo[2.2.2]oct-5-yl)-1-propynyl}-4-pyrimidinyl)-1,4-diazepan-1-yl]-6-amino-3-pyridazinyl}phenol], the DC50 in assay [1] and in assay [2] was 50 to 500 nM in each case. Moreover, the “SMARCA2 % Degradation @ 1 μM” value in assay [1] (@ 1 μM) was “+++ (+++=>70%)”. Further, the inhibition at 1 µM in assay [2] (@ 1 μM) was in the range of 30 to 70%.
For the molecule `CN(C)CC#Cc1nccc(N2C3CCC2CN(c2cnnc(-c4ccccc4O)c2)C3)n1` [Compound P-381, 0-[5-(8-{2-[3-(dimethylamino)-1-propynyl]-4-pyrimidinyl}-3,8-diazabicyclo[3.2.1]oct-3-yl)-3-pyridazinyl]phenol], the DC50 in assay [1] was 50 to 500 nM; in assay [2] it was > 5000 nM. In assay [1] (1 μM), the “SMARCA2 % Degradation @ 1 μM” value was “++ (++=30-70%)”.
Consider `CNCC#Cc1nccc(N2CCN(c3cc(-c4ccccc4O)nnc3N)CC2)n1` [Compound P-294, 0-[6-amino-5-(4-{2-[3-(methylamino)-1-propynyl]-4-pyrimidinyl}-1-piperazinyl)-3-pyridazinyl]phenol], for which the DC50 in assay [1] and in assay [2] was < 50 nM in each case. The “SMARCA2 % Degradation @ 1 μM” value in assay [1] (@ 1 μM) is reported as “++ (++=30-70%)”. Besides, the inhibition at 1 µM in assay [2] (@ 1 μM) is < 30%.
For the molecule `Nc1nnc(-c2ccccc2O)cc1N1CCCN(c2ccnc(C#CCN3CCCCC3)n2)CC1` [Compound P-373, 0-(6-amino-5-{4-[2-(3-piperidino-1-propynyl)-4-pyrimidinyl]-1,4-diazepan-1-yl}-3-pyridazinyl)phenol], the DC50 in assay [1] and in assay [2] was 50 to 500 nM in each case. Moreover, in assay [1] (@ 1 μM), the “SMARCA2 % Degradation @ 1 μM” value was “+++ (+++=>70%)”. The inhibition at 1 µM in assay [2] (@ 1 μM) lay within 30 to 70%.
On to `CC(C#Cc1cc(N2CCN(c3cc(-c4ccccc4O)nnc3N)CC[C@H]2C)ccn1)N(C)C` (stereo partly drawn) [Compound P-399, 0-{5-[(R)-4-{2-[3-(dimcthylamino)-1-butynyl]-4-pyridyl}-5-methyl-1,4-diazepan-1-y1]-6-amino-3-pyridazinyl}phenol], for which the DC50 in assay [1] and in assay [2] was < 50 nM in each case. In addition, in assay [1] (1 μM), the “SMARCA2 % Degradation @ 1 μM” value was “++ (++=30-70%)”. The inhibition at 1 µM in assay [2] (1 μM) lay within 30 to 70%.
As for `Nc1nnc(-c2ccccc2O)cc1N1CCN(c2ccnc(C#CCN3CCCCC3)n2)CC1` [Compound P-280, 0-(6-amino-5-{4-[2-(3-piperidino-1-propynyl)-4-pyrimidinyl]-1-piperazinyl}-3-pyridazinyl)phenol], the DC50 in assay [1] and in assay [2] was < 50 nM each time. In addition, the “SMARCA2 % Degradation @ 1 μM” value in assay [1] (@ 1 μM) was “++ (++=30-70%)”. In addition, the inhibition at 1 µM in assay [2] (@ 1 μM) was < 30%.
`C[C@@H]1CCN(c2cc(-c3ccccc3O)nnc2N)CCN1c1nc(C#CCN2CC3CC2C3)ncc1F` [Compound P-189, o-{5-[(R)-4-(2-{3-(2-azabicyclo[2.1.1]hex-2-yl)-1-propynyl}-5-fluoro-4-pyrimidinyl)-5-methyl-1,4-diazepan-1-yl]-6-amino-3-pyridazinyl}phenol]: the DC50 in assay [1] and in assay [2] was < 50 nM in each case. The “SMARCA2 % Degradation @ 1 μM” value in assay [1] (@ 1 μM) was “++ (++=30-70%)”. The inhibition at 1 µM in assay [2] (@ 1 μM) lay within 30 to 70%.
Regarding `C[C@@H]1CCN(c2cc(-c3ccccc3O)nnc2N)CCN1c1ccnc(/C=C/CO)n1` [Compound P-168, o-(5-{(R)-4-[2-(3-hydroxy-1-propenyl)-4-pyrimidinyl]-5-methyl-1,4-diazepan-1-y1}-6-amino-3-pyridazinyl)phenol], the DC50 in assay [1] and in assay [2] was 50 to 500 nM each time. Also, the “SMARCA2 % Degradation @ 1 μM” value in assay [1] (@ 1 μM) is “+++ (+++=>70%)”. For the same molecule, in assay [2] (@ 1 μM), the inhibition at 1 µM is > 70%.
On to `CN(C)CC#Cc1nc(N2CCCN(c3cc(-c4ccccc4O)nnc3N)CC2)ccc1C#N` [Compound P-385, 6-{4-[3-amino-6-(o-hydroxyphenyl)-4-pyridazinyl]-1,4-diazepan-1-y1}-2-[3-(dimethylamino)-1-propynyl]nicotinonitrile], for which the DC50 in assay [1] and in assay [2] was 50 to 500 nM in each case. The “SMARCA2 % Degradation @ 1 μM” value in assay [1] (1 μM) was “+++ (+++=>70%)”. In addition, in assay [2] (1 μM), the inhibition at 1 µM was > 70%.
For `Nc1nnc(-c2ccccc2O)cc1N1CCC2(CCN(c3ccnc(C#CCNC(=O)c4cc5ncccn5n4)n3)C2)CC1` [Compound P-32, N-(3-(4-(8-(3-amino-6-(2-hydroxyphenyl)pyridazin-4-yl)-2,8-diazaspiro[4.5]decan-2-yl)pyrimidin-2-yl)prop-2-yn-1-yl)pyrazolo[1,5-a]pyrimidine-2-carboxamide], the DC50 in assay [1] and in assay [2] was 50 to 500 nM in each case. The “SMARCA2 % Degradation @ 1 μM” value in assay [1] (@ 1 μM) is recorded as “++ (++=30-70%)”. This molecule showed an inhibition at 1 µM in assay [2] (@ 1 μM) of 30 to 70%.
On to `Nc1nnc(-c2ccccc2O)cc1N1CC2CCC(C1)N2c1ccnc(C#CCCCNC(=O)c2cc3ncccn3n2)n1` [Compound P-99, N-(5-(4-(3-(3-amino-6-(2-hydroxyphenyl)pyridazin-4-yl)-3,8-diazabicyclo[3.2.1]octan-8-yl)pyrimidin-2-yl)pent-4-yn-1-yl)pyrazolo[1,5-a]pyrimidine-2-carboxamide], for which the DC50 in assay [1] and in assay [2] was 500 to 5000 nM each time. The “SMARCA2 % Degradation @ 1 μM” value in assay [1] (@ 1 μM) is on record as “+ (+=<30%)”. For the same molecule, the inhibition at 1 µM in assay [2] (@ 1 μM) was < 30%.
Turning to `C[C@@H]1CCN1CC#Cc1cc(N2CCN(c3cc(-c4ccccc4O)nnc3N)CC[C@H]2C)ccn1` [Compound P-420, 0-{5-[(R)-4-(2-{3-[(R)-2-methyl-1-azetidinyl]-1-propynyl}-4-pyridyl)-5-methyl-1,4-diazepan-1-yl]-6-amino-3-pyridaziny1}phenol], the DC50 in assay [1] and in assay [2] was < 50 nM each time. In assay [1] (1 μM), the “SMARCA2 % Degradation @ 1 μM” value is listed as “+++ (+++=>70%)”. Also, in assay [2] (1 μM), the inhibition at 1 µM is 30 to 70%.
`Nc1nnc(-c2ccccc2O)cc1N1CCCN(c2ccnc(C#CCNC(=O)NC3CC3)n2)CC1` [Compound P-324, 0-[6-amino-5-(4-{2-[3-(3-cyclopropylureido)-1-propynyl]-4-pyrimidinyl}-1,4-diazepan-1-yl)-3-pyridazinyl]phenol]: the DC50 in assay [1] and in assay [2] was 500 to 5000 nM each time. The “SMARCA2 % Degradation @ 1 μM” value in assay [1] (@ 1 μM) is listed as “++ (++=30-70%)”. The inhibition at 1 µM in assay [2] (@ 1 μM) was < 30%.
For the molecule `C[C@H]1COCCN1CC#Cc1nccc(N2CCCN(c3cc(-c4ccccc4O)nnc3N)CC2)n1` [Compound P-316, 0-{5-[4-(2-{3-[(S)-3-methyl-4-morpholinyl]-1-propynyl}-4-pyrimidinyl)-1,4-diazepan-1-yl]-6-amino-3-pyridazinyl}phenol], the DC50 in assay [1] lay in the range of 50 to 500 nM; in assay [2], 500 to 5000 nM. Also, in assay [1] (@ 1 μM), the “SMARCA2 % Degradation @ 1 μM” value was “++ (++=30-70%)”. For the same molecule, in assay [2] (@ 1 μM), the inhibition at 1 µM is < 30%.
For `N#CC1CN(CC#Cc2nccc(N3CCCN(c4cc(-c5ccccc5O)nnc4N)CC3)n2)CCO1` (stereo not drawn) [Compound P-310, 4-[3-(4-{4-[3-amino-6-(o-hydroxyphenyl)-4-pyridazinyl]-1,4-diazepan-1-y1}-2-pyrimidinyl)-2-propynyl]-2-morpholinecarbonitrile], the DC50 in assay [1] and in assay [2] was 50 to 500 nM in each case. Besides, in assay [1] (@ 1 μM), the “SMARCA2 % Degradation @ 1 μM” value was “++ (++=30-70%)”. For the same molecule, in assay [2] (@ 1 μM), the inhibition at 1 µM was in the range of 30 to 70%.
With `Nc1nnc(-c2ccccc2O)cc1N1CCCN(c2ccnc(C#CCN3CCC(Cc4ccccc4)CC3)n2)CC1` [Compound P-337, 0-[6-amino-5-(4-{2-[3-(4-benzyl-1-piperidyl)-1-propynyl]-4-pyrimidinyl}-1,4-diazepan-1-yl)-3-pyridazinyl]phenol], the DC50 in assay [1] and in assay [2] was 50 to 500 nM each time. In addition, the “SMARCA2 % Degradation @ 1 μM” value in assay [1] (@ 1 μM) is given as “+++ (+++=>70%)”. Besides, the inhibition at 1 µM in assay [2] (@ 1 μM) is > 70%.
Turning to `Cc1cnc(C#CCn2ccnc2)nc1N1CCN(c2cc(-c3ccccc3O)nnc2N)CC[C@H]1C` [Compound P-227, o-{5-[(R)-4-{2-[3-(1-imidazolyl)-1-propynyl]-5-methyl-4-pyrimidinyl}-5-methyl-1,4-diazepan-1-yl]-6-amino-3-pyridaziny1} phenol], the DC50 in assay [1] and in assay [2] was 50 to 500 nM throughout. In addition, the “SMARCA2 % Degradation @ 1 μM” value in assay [1] (@ 1 μM) is on record as “+++ (+++=>70%)”. Further, the inhibition at 1 µM in assay [2] (@ 1 μM) lay within 30 to 70%.
For `C[C@@H]1CCN(c2cc(-c3ccccc3O)nnc2N)CCN1c1ccnc(C#CCN2C[C@@H]3C[C@H]2CO3)c1` [Compound P-404, 0-{5-[(R)-4-[2-(3-{(1S,4S)-2-oxa-5-azabicyclo[2.2.1]hept-5-yl}-1-propynyl)-4-pyridyl]-5-methyl-1,4-diazepan-1-yl]-6-amino-3-pyridazinyl}phenol], the DC50 in assay [1] and in assay [2] was 50 to 500 nM in each case. The “SMARCA2 % Degradation @ 1 μM” value in assay [1] (1 μM) was “++ (++=30-70%)”. Besides, the inhibition at 1 µM in assay [2] (1 μM) was 30 to 70%.
With `Nc1nnc(-c2ccccc2O)cc1N1CCN(c2ccnc(C#CCNC(=O)c3nc4ccccc4s3)n2)CC1` [Compound P-118, N-(3-(4-(4-(3-amino-6-(2-hydroxyphenyl)pyridazin-4-yl)piperazin-1-yl)pyrimidin-2-yl)prop-2-yn-1-yl)benzo[d]thiazole-2-carboxamide], the DC50 in assay [1] and in assay [2] was 50 to 500 nM throughout. Also, the “SMARCA2 % Degradation @ 1 μM” value in assay [1] (@ 1 μM) is on record as “++ (++=30-70%)”. Besides, the inhibition at 1 µM in assay [2] (@ 1 μM) is 30 to 70%.

(Values after patent US20260265238A1, “COMPOUNDS AND PHARMACEUTICAL COMPOSITIONS THAT DEGRADE SWI/SNF-RELATED MATRIX-ASSOCIATED ACTIN-DEPENDENT REGULATOR OF CHROMATIN SUBFAMILY A” (Plexium, Inc., priority 2023, published 2026).)
